Source: US9481654B2, “Compositions and methods for inhibition of the JAK pathway” (Rigel Pharmaceuticals, Inc., priority 2006, dated 2016)
pIC50: −log10 of the molar value.

Experiments:
[1] = tested on: primary human T-cells (IL-2 induced proliferation, JAK-1/JAK-3, Stat-5); experiment: Primary Human T-Cell Proliferation Assay Stimulated with IL-2 (CellTiter-Glo); format: cell-based; conditions: Table III Example 4
How it was run: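 Read-out is intracellular ATP luminescence (CellTiter-Glo) after 72 h at 37 °C of IL-2-driven growth. Cells, pre-stimulated via TCR and CD28 then washed free of IL-2, were resuspended in Yssel's medium, given 80 U/mL IL-2 in the cell suspension plus duplicate compound; unstimulated wells lacked IL-2.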

[2] = tested on: IFNγ induced ICAM-1 (CD54) up-regulation in A549 lung epithelial cells (JAK/Stat pathway); experiment: A549 Epithelial Line Stimulated with IFNγ (ICAM-1 surface expression, flow cytometry); format: cell-based, human; conditions: Table III Example 5
From the text: The activity of the compounds of the invention may additionally be characterized by assaying the effect of the 2,4-pyrimidinediamine compounds described herein on A549 lung epithelial cells and U937 cells. A549 lung epithelial cells and U937 cells up-regulate ICAM-1 (CD54) surface expression in response to a variety of different stimuli. Therefore, using ICAM-1 expression as readout, test compound effects on different signaling pathways can be assessed in the same cell type. Stimulation with IL-1β through the IL-1β receptor activates the TRAF6/NFκB pathway resulting in up-regulation of ICAM-1. IFNγ induces ICAM-1 up-regulation through activation of the JAK1/JAK2 pathway. The up-regulation of ICAM-1 can be quantified by flow cytometry across a compound dose curve and EC50 values are calculated. Exemplary assays of this type are described in greater detail in Examples 5 and 6.
A549 lung epithelial cells up-regulate ICAM-1 (CD54) surface expression in response to a variety of different stimuli. Therefore, using ICAM-1 expression as readout, compound effects on different signaling pathways can be assessed in the same cell type. IFNγ up-regulates ICAM-1 through activation of the JAK/Stat pathway. In this example, the up-regulation of ICAM-1 by IFNγ was assessed.
The A549 lung epithelial carcinoma cell line originated from the American Type Culture Collection. Routine culturing was with F12K media (Mediatech Inc., Lenexa, Kans., Cat. No. 10-025-CV) with 10% fetal bovine serum, 100 I.U. penicillin and […] streptomycin (complete F12k media). Cells were incubated in a humidified atmosphere of 5% CO2 at 37° C. Prior to use in the assay, A549 cells were washed with PBS and trypsinized (Mediatech Inc., Cat. No. 25-052-CI) to lift the cells. The trypsin cell suspension was neutralized with complete F12K media and centrifuged to pellet the cells. The cell pellet was resuspended in complete F12K media at a concentration of 2.0×10^5/mL. Cells were seeded at 20,000 per well, 100 μL total volume, in a flat bottom tissue culture plate and allowed to adhere overnight.
On day two, A549 cells were pre-incubated with a 2,4-pyrimidinediamine test compound or DMSO (control) (Sigma-Aldrich, St. Louis, Mo., Catalog No. D2650) for 1 hour. The cells were then stimulated with IFNγ (75 ng/mL) (Peprotech Inc., Rocky Hill, N.J., Cat. No. 300-02) and allowed to incubate for 24 hours. The final test compound dose range was 30 μM to 14 nM in 200 μL F12K media containing 5% FBS, 0.3% DMSO.
On day three, the cell media was removed and the cells were washed with 200 μL PBS (phosphate buffered saline). Each well was trypsinized to dissociate the cells, then neutralized by addition of 200 μL complete F12K media. Cells were pelleted and stained with an APC conjugated mouse anti-human ICAM-1 (CD54) (BD Pharmingen, San Diego, Calif., Catalog #559771) antibody for 20 minutes at 4° C. Cells were washed with ice cold FACS buffer (PBS+2% FBS) and surface ICAM-1 expression was analyzed by flow cytometry. Detection was performed using a BD LSR I System Flow Cytometer, purchased from BD Biosciences of San Jose, Calif. Events were gated for live scatter and the geometric mean was calculated (Becton-Dickinson CellQuest software version 3.3, Franklin Lakes, N.J.). Geometric means were plotted against the compound concentration to generate a dose response curve.

[3] = tested on: IL-4 stimulated CD23 upregulation in human Ramos B cells (JAK-1/JAK-3, Stat-6); experiment: Assay for Ramos B-Cell Line Stimulated with IL-4 (CD23 upregulation, FACS); format: cell-based; conditions: Table III Example 3
How it was run: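 Flow cytometry of CD23 staining after 20-24 h IL-4 stimulation (50 units/mL final) of human Ramos B cells in RPMI with 5% serum. Cells, 5×10^4 per point, received compound or DMSO vehicle for 1 h at 37° C prior to stimulation.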

SMILES: CCCN(Cc1ccc(Nc2nc(Nc3ccc(S(N)(=O)=O)cc3)ncc2F)cc1)S(=O)(=O)CC [Compound I-17, N2-(4-aminosulfonyl)phenyl-N4-[4-(N-ethylsulfonyl-N-propylamino)methyl]phenyl-5-fluoro-2,4-pyrimidinediamine]
- pIC50 [1]: 5.97
- pIC50 [2]: 5.08
- pIC50 [3]: 6.78

SMILES: CC(C)S(=O)(=O)NCc1ccc(Nc2nc(Nc3ccc(S(N)(=O)=O)cc3)ncc2F)cc1 [Compound I-65, N2-(4-aminosulfonyl)phenyl-5-fluoro-N4-(4-isopropylsulfonylaminomethyl)phenyl-2,4-pyrimidinediamine]
- pIC50 [1]: 6.20
- pIC50 [2]: 4.98
- pIC50 [3]: 6.68
